Data: US11739098B2 (BRISTOL-MYERS SQUIBB COMPANY, priority 2017, dated 2023)

Experiments:
Assay type in all cases: cell-based
human TLR7 = molecular target: T1, human TLR7 (Homo sapiens, UniProt Q9NYK1); assay: TLR7 inhibition reporter assay (HEK-Blue cells, SEAP reporter, gardiquimod stimulation); conditions: HEK-Blue cells overexpressing human TLR7, SEAP reporter, gardiquimod 7.5 μM
T1 construct: host or cells: HEK-Blue cells (HEK293-derived reporter line)
T1 sequence (Q9NYK1 27-1049): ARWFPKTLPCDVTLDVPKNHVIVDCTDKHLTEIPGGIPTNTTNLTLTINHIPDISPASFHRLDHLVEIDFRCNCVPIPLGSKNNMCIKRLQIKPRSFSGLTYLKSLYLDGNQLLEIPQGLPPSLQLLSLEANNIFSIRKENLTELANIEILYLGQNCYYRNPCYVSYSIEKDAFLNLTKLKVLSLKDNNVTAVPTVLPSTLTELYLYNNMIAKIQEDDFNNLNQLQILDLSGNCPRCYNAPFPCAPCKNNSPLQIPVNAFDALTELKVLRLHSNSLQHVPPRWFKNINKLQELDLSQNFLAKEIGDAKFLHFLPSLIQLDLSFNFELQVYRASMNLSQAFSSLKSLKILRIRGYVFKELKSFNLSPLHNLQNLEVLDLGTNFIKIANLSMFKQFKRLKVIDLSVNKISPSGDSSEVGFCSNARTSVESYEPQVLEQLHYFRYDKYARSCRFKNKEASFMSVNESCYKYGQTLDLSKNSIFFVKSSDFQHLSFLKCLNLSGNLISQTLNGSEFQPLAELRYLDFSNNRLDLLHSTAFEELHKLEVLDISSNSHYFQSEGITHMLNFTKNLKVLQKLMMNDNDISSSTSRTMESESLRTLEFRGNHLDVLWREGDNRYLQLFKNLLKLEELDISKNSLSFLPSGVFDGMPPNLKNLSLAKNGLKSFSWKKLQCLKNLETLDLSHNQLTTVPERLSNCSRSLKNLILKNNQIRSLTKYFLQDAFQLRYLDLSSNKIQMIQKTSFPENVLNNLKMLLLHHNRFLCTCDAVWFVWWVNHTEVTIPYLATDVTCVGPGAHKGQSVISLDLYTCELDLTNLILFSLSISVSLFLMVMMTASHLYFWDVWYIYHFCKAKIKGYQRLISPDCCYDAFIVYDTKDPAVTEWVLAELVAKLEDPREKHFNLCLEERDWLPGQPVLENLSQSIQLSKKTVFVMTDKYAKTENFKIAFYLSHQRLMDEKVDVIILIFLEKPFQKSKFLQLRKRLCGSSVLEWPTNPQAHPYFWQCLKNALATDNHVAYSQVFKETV
In short: (§1)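 Cells seeded per well (15000 TLR7, 20,000 TLR8, 25,000 TLR9); compound added over 0.05 nM–50 μM for 30 min at room temperature; agonist added (TLR7 gardiquimod 7.5 μM, TLR8 R848 15.9 μM, TLR9 ODN2006 5 nM); 22 h at 37 °C; SEAP measured; percent inhibition calculated.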

human TLR8 = molecular target: T2, human TLR8 (Homo sapiens, UniProt Q9NR97); assay: TLR8 inhibition reporter assay (HEK-Blue cells, SEAP reporter, R848 stimulation); conditions: HEK-Blue cells overexpressing human TLR8, SEAP reporter, R848 15.9 μM
T2 construct: host or cells: HEK-Blue cells (HEK293-derived reporter line)
T2 sequence (Q9NR97 27-1041): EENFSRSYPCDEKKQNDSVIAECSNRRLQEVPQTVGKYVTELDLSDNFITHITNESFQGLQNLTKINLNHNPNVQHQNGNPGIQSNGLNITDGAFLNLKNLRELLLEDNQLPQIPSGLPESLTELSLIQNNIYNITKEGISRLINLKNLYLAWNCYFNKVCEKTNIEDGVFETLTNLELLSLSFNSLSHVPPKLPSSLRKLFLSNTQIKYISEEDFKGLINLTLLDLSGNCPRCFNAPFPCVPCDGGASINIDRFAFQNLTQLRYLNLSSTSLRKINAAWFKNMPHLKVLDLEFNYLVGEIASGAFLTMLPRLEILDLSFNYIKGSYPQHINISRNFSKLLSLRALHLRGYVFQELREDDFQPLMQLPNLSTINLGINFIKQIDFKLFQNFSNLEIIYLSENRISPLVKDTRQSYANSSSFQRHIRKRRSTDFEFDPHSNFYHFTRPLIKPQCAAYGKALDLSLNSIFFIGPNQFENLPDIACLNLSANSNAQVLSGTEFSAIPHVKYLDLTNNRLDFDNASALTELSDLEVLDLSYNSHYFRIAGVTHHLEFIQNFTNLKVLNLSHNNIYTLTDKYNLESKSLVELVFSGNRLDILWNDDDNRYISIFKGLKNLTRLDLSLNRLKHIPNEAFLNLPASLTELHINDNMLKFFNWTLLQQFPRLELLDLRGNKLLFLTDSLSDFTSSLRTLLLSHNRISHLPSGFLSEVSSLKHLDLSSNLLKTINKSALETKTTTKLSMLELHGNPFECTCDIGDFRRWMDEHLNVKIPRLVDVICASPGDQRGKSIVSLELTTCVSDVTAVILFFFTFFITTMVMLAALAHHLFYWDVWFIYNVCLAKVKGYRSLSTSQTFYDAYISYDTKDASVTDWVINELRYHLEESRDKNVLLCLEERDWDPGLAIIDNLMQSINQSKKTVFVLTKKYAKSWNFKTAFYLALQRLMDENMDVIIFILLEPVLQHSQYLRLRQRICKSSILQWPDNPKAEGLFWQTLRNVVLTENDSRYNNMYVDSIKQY
In short: as §1

human TLR9 = molecular target: T3, human TLR9 (Homo sapiens, UniProt Q9NR96); assay: TLR9 inhibition reporter assay (HEK-Blue cells, SEAP reporter, ODN2006 stimulation); conditions: HEK-Blue cells overexpressing human TLR9, SEAP reporter, ODN2006 5 nM
T3 construct: host or cells: HEK-Blue cells (HEK293-derived reporter line)
T3 sequence (Q9NR96 26-1032): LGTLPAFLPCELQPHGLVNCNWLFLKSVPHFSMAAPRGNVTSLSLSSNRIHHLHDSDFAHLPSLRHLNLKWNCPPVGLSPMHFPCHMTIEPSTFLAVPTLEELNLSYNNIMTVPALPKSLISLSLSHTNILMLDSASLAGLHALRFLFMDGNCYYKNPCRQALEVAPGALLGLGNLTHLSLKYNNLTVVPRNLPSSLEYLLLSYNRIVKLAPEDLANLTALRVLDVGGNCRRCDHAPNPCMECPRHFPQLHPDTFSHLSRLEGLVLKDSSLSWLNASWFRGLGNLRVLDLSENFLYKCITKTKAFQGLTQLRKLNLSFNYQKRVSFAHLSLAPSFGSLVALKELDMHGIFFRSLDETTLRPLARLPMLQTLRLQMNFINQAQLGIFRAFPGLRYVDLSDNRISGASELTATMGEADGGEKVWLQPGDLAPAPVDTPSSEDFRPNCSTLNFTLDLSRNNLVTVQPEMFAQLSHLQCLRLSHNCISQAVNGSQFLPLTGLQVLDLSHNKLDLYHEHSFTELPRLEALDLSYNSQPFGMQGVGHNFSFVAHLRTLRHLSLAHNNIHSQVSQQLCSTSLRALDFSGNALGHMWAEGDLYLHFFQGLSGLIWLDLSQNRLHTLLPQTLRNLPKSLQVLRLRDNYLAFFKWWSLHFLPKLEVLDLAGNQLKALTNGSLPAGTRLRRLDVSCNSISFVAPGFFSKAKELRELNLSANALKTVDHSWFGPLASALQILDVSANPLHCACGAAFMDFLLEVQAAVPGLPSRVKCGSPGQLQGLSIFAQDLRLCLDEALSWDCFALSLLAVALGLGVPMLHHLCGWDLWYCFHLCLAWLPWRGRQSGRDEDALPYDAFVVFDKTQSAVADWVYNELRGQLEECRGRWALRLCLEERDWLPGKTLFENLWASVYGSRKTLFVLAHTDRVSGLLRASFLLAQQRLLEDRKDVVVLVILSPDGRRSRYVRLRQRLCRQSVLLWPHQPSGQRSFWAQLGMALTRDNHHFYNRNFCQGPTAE
In short: as §1

Compound	IC50 (human TLR7) [nM]	IC50 (human TLR8) [nM]	IC50 (human TLR9) [nM]
CC(C)c1c(-c2ccn3cnnc3c2)[nH]c2ccc(C3CCNCC3)cc12 [Example 83, 7-(3-isopropyl-5-(piperidin-4-yl)-1H-indol-2-yl)-[1,2,4]triazolo[4,3-a]pyridine]	< 100	100 to 1000	100 to 1000
CC(C)c1c(-c2ccc3oc(=O)[nH]c3c2)[nH]c2ccc(C3CCNCC3)cc12 [Example 11, 5-(3-isopropyl-5-(piperidin-4-yl)-1H-indol-2-yl)benzo[d]oxazol-2(3H)-one]	< 100	100 to 1000	100 to 1000
COc1cc(-c2[nH]c3ccc(C4CCN(CC(=O)N(C)C)CC4)cc3c2C(C)C)cc2nc(C)nn12 [Example 348, 2-(4-(3-isopropyl-2-(5-methoxy-2-methyl-[1,2,4]triazolo[1,5-a]pyridin-7-yl)-1H-indol-5-yl)piperidin-1-yl)-N,N-dimethylacetamide]	< 100	< 100	1000 to 50000
Cc1nc2cc(-c3[nH]c4ccc(C5CCNCC5)cc4c3C(C)C)cc(C)c2o1 [Example 92, 5-(3-isopropyl-5-(piperidin-4-yl)-1H-indol-2-yl)-2,7-dimethylbenzo[d]oxazole]	< 100	100 to 1000	1000 to 50000
Cc1cc(-c2[nH]c3ccc(C4CCN(S(=O)(=O)CCN(C)C)CC4)cc3c2C(C)C)cn2nnnc12 [Example 617, 2-((4-(3-isopropyl-2-(8-methyltetrazolo[1,5-a]pyridin-6-yl)-1H-indol-5-yl)piperidin-1-yl)sulfonyl)-N,N-dimethylethan-1-amine]	< 100	< 100	1000 to 50000
CC(C)c1c(-c2cnc3ccnn3c2)[nH]c2ccc(C3CCN(C(C)C)CC3)cc12 [Example 944, 6-(3-isopropyl-5-(1-isopropylpiperidin-4-yl)-1H-indol-2-yl)pyrazolo[1,5-a]pyrimidine]	1000 to 50000	> 3130	1000 to 50000
Cc1c(-c2[nH]c3ccc(C4CCN(CC(C)(C)O)CC4)cc3c2C(C)C)ccc2c1cnn2C [Example 763, 1-(4-(2-(1,4-dimethyl-1H-indazol-5-yl)-3-isopropyl-1H-indol-5-yl)piperidin-1-yl)-2-methylpropan-2-ol]	< 100	< 100	1000 to 50000
CC(=O)N1CCN(CC(=O)N2CCC(c3ccc4[nH]c(-c5ccnc6[nH]ncc56)c(C(C)C)c4c3)CC2)CC1 [Example 574, 2-(4-acetylpiperazin-1-yl)-1-(4-(3-isopropyl-2-(1H-pyrazolo[3,4-b]pyridin-4-yl)-1H-indol-5-yl)piperidin-1-yl)ethan-1-one]	< 100	< 100	> 50000
CC(C)c1c(-c2ccc3[nH]cnc3c2)[nH]c2ccc(C3CCNCC3)cc12 [Example 50, 5-(3-isopropyl-5-(piperidin-4-yl)-1H-indol-2-yl)-1H-benzo[d]imidazole]	100 to 1000	1000 to 50000	1000 to 50000
CC(C)c1c(-c2ccc(C#N)c3ncccc23)[nH]c2ccc(C3CCNCC3)cc12 [Example 109, 5-(3-isopropyl-5-(piperidin-4-yl)-1H-indol-2-yl)quinoline-8-carbonitrile]	< 100	< 100	100 to 1000
Cc1c(-c2ccnc3[nH]ccc23)[nH]c2ccc(C3CCNCC3)cc12 [Example 2, 4-(3-methyl-5-(piperidin-4-yl)-1H-indol-2-yl)-1H-pyrrolo[2,3-b]pyridine]	< 100	< 100	1000 to 50000
CC(C)c1c(-c2ccc3cnnn3c2)[nH]c2ccc(C3CCN(C4CCOCC4)CC3)cc12 [Example 695, 6-(3-isopropyl-5-(1-(tetrahydro-2H-pyran-4-yl)piperidin-4-yl)-1H-indol-2-yl)-[1,2,3]triazolo[1,5-a]pyridine]	100 to 1000	< 100	100 to 1000
Cc1cn2c(C)c(-c3[nH]c4ccc(C5CCNCC5)cc4c3C(C)C)ccc2n1 [Example 123, 6-(3-isopropyl-5-(piperidin-4-yl)-1H-indol-2-yl)-2,5-dimethylimidazo[1,2-a]pyridine]	< 100	100 to 1000	100 to 1000
Cc1cc2nnnn2cc1-c1[nH]c2ccc(C3CCN(C4CCOCC4)CC3)cc2c1C(C)C [Example 699, 6-(3-isopropyl-5-(1-(tetrahydro-2H-pyran-4-yl)piperidin-4-yl)-1H-indol-2-yl)-7-methyltetrazolo[1,5-a]pyridine]	< 100	< 100	1000 to 50000
Cc1nc2c(C)cc(-c3[nH]c4ccc(C5CCNCC5)cc4c3C(C)C)cn2c1C [Example 132, 6-(3-isopropyl-5-(piperidin-4-yl)-1H-indol-2-yl)-2,3,8-trimethylimidazo[1,2-a]pyridine]	< 100	100 to 1000	100 to 1000
